Entries after “also recorded” stand apart in the source; their conditions may differ.
Legend:
[1] = Molar extinction coefficient (UV absorption); type: physicochemical; settings: at λmax 306 nm in water
[2] = Compatibility with anionic surfactant in formulation; type: physicochemical; settings: sodium lauryl ether sulphate based transparent shampoo / transparent bathing bar; N,N-dimethyl ammonium)-2-hydroxy propane-1-sulph
Method: The major ingredients were mixed with heating to 50° C. until a uniform homogeneous mixture was formed. The resulting mixture was then cooled to room temperature with continuous stirring. The required chelating agent, colour, perfume were added. The viscosity was adjusted to 2500 cps with sodium chloride.
All ingredients were heated together under stirring to 70° C. till the reaction mass became homogenous and transparent. The reaction mass was cooled to 40° C. and the required amounts of chelating agents, perfume and colour were added. The molten mass was cast in moulds of desired shape to yield transparent bathing bar.

COc1ccc(C=CC(=O)NCCC[N+](C)(C)CC(O)CS(=O)(=O)[O-])cc1 (centres unmarked) [Example I, 3-(N-p-Methoxy Cinnamidopropyl, N,N-Dimethyl Ammonium)-2-hydroxy Propane-1-sulphonate]
molar extinction coefficient, ∈ [1]: 24,000 | compatibility with anionic surfactant [2]: completely compatible; also recorded: total compatibility
